Source: US10544143B2, “4-azaindole compounds” (BRISTOL-MYERS SQUIBB COMPANY, priority 2017, dated 2020)
Read-outs that look alike come from different tables or passages of the source.

What was measured:
TLR7 = TLR7 (Mus musculus (Mouse), UniProt P58681); assay: In vivo mouse TLR7 PD model (gardiquimod challenge, plasma IL-6 and IFN-alpha); details: C57BL/6 mice, plasma 90 min after gardiquimod i.p., vs vehicle
Description: In Vivo Mouse TLR7 PD Model:
Adult male C57BL/6 mice were used for the experiments. Mice (7 to 10 per group) were randomized into different treatment groups based on body weight. Mice from the respective treatment groups were administered orally with vehicle or test compound. Thirty min after the oral administration of vehicle or test compound, mice were challenged with intraperitoneal injection of gardiquimod for TLR7 PD model. Ninety minutes after gardiquimod injection, mice were bled under isoflurane anaesthesia and plasma IL-6 and IFN-alpha levels were estimated by using commercially available ELISA kit (BD Biosciences, PBL Life Sciences). At the end of experiment, mean cytokine data was plotted and one way ANOVA with Dunnett's test was performed to calculate the significance of test compound treated group vs. vehicle control group. Percent inhibition of cytokine induction was calculated for test compound treated group vs vehicle control group.

human TLR7 = human TLR7 (Homo sapiens (Human), UniProt Q9NYK1); assay: TLR7 inhibition reporter assay (HEK-Blue SEAP); type: cell-based
Sequence of human TLR7 (Q9NYK1 27-1049): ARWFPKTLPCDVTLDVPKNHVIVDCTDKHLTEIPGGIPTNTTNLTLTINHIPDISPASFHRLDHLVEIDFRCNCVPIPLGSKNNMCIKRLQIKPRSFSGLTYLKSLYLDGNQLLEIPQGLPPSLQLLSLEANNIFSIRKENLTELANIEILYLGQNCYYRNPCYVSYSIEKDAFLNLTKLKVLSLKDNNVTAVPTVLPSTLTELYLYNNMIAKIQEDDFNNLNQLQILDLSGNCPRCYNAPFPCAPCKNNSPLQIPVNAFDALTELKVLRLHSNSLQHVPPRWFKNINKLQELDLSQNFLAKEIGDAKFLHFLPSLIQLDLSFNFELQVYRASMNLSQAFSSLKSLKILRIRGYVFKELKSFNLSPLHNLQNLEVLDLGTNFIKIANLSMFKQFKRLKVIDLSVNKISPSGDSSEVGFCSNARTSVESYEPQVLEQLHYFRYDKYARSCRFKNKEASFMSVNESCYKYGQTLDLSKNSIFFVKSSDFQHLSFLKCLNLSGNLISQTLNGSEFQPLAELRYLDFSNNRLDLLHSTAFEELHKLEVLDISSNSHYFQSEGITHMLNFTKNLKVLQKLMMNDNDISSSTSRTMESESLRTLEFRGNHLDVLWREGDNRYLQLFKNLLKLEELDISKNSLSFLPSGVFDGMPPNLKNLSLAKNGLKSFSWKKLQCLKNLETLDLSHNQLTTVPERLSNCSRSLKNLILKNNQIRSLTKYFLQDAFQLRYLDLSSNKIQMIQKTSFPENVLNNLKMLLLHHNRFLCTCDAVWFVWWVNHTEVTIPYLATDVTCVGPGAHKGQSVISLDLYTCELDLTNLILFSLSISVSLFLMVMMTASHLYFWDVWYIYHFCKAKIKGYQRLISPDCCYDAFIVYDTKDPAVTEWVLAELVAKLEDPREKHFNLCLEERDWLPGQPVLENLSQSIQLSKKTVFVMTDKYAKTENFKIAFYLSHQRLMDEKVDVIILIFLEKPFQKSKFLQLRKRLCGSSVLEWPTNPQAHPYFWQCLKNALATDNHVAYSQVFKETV

human TLR8 = human TLR8 (Homo sapiens (Human), UniProt Q9NR97); assay: TLR8 inhibition reporter assay (HEK-Blue SEAP); details: read-out: TLR8 IC50;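 note: SEAP driven by IFN-β minimal promoter carrying NF-κB and AP-1 sites, compounds dosed 0.05 nM to 50 µM for 22 h, inhibition scaled between agonist-plus-DMSO and reference-inhibitor wells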
Sequence of human TLR8 (Q9NR97 27-1041): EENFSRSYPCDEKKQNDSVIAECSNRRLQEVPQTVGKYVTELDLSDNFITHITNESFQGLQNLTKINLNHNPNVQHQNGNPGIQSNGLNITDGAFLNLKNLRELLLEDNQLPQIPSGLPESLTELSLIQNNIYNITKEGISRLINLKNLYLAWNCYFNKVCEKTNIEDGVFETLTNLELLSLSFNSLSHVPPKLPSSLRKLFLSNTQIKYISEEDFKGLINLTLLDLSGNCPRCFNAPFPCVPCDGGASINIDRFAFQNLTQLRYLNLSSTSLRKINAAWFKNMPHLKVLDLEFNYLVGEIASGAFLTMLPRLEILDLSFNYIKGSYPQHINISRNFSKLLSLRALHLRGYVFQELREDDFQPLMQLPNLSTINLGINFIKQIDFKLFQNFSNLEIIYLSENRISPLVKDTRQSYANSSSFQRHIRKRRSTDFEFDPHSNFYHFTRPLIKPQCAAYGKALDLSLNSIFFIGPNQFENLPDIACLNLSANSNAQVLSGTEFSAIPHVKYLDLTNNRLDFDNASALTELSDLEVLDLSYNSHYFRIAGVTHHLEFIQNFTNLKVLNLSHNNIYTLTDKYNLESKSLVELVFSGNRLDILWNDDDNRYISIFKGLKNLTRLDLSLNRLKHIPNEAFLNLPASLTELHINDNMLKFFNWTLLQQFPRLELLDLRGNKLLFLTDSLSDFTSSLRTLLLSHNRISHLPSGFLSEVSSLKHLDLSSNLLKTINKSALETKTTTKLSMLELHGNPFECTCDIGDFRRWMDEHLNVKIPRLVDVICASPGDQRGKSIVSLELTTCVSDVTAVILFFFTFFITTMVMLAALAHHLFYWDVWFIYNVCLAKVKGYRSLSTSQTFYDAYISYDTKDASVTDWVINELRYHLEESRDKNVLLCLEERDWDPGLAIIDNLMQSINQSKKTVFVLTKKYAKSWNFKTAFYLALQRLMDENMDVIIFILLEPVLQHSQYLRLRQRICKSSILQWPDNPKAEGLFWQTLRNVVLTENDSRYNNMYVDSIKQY

human TLR9 = human TLR9 (Homo sapiens (Human), UniProt Q9NR96); assay: TLR9 inhibition reporter assay (HEK-Blue SEAP); details: read-out: TLR9 IC50;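 note: SEAP driven by an IFN-β minimal promoter with NF-κB and AP-1 sites, read after 22 h, compounds dosed 0.05 nM–50 µM, inhibition scaled between agonist plus DMSO and reference-inhibitor wells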
Sequence of human TLR9 (Q9NR96 26-1032): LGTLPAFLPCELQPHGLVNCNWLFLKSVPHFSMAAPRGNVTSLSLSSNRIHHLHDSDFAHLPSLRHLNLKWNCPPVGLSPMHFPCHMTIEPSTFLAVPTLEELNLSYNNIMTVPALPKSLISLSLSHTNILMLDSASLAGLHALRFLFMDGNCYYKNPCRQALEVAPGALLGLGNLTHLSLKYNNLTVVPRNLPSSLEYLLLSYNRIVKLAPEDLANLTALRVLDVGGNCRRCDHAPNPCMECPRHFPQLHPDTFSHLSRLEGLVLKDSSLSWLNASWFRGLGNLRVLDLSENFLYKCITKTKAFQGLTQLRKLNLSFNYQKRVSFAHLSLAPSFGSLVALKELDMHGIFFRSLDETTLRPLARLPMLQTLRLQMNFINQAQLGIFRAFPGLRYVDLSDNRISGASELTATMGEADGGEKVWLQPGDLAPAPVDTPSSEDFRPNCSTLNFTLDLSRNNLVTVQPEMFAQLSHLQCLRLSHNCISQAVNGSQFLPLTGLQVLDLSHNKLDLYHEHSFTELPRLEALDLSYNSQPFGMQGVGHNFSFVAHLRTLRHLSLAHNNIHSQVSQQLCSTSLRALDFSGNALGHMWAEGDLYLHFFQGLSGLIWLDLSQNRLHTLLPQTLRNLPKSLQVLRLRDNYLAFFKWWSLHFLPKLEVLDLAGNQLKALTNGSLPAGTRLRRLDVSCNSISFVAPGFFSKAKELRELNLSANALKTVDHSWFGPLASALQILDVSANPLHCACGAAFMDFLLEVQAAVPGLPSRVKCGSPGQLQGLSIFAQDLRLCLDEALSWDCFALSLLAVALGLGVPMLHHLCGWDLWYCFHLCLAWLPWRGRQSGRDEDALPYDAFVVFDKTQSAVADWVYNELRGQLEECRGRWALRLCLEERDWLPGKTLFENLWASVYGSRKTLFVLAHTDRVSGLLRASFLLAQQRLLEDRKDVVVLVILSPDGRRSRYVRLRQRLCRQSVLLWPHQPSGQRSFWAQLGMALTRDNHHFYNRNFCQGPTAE

[1] = HEK-Blue cells overexpressing human TLR7, gardiquimod 7.5 μM stimulation, SEAP reporter
[2] = HEK-Blue cells overexpressing human TLR8, R848 15.9 μM stimulation, SEAP reporter
[3] = HEK-Blue cells overexpressing human TLR9, ODN2006 5 nM stimulation, SEAP reporter
[4] = HEK-Blue human TLR7 cells, gardiquimod 7.5 μM
[5] = HEK-Blue human TLR8 cells, R848 15.9 μM
[6] = HEK-Blue human TLR9 cells, ODN2006 5 nM

Sequence of TLR7 (P58681 27-1050): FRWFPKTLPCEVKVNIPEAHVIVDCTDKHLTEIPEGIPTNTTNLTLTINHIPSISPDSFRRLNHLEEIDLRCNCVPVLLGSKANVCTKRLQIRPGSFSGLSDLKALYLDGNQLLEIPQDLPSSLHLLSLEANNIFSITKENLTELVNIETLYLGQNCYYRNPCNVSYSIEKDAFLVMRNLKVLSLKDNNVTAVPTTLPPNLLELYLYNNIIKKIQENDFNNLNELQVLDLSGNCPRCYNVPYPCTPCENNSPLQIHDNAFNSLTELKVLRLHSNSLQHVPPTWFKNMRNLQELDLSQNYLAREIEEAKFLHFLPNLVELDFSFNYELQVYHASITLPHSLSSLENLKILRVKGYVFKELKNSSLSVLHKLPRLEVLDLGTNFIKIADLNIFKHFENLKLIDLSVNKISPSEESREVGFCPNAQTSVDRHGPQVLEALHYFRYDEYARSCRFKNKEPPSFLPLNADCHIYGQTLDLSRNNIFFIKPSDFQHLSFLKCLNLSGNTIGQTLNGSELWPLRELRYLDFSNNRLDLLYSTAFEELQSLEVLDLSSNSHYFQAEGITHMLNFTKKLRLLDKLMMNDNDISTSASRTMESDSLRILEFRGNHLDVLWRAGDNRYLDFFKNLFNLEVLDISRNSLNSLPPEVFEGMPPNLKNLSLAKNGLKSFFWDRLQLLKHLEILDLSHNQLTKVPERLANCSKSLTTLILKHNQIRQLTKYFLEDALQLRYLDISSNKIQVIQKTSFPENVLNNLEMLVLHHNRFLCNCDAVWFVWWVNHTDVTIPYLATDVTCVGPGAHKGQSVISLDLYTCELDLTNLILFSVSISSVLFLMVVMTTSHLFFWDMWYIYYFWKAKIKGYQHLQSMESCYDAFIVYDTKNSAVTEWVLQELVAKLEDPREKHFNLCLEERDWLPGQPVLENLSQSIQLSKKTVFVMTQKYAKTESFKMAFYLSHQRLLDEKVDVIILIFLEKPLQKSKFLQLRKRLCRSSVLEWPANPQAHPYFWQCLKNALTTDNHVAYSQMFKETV

SMILES	IC50 (human TLR7; [4])	IC50 (human TLR8; [5])	IC50 (human TLR9; [6])	further results
Cc1c(-c2[nH]c3ccc(N4CCN(C(=O)CN(C)C)CC4)nc3c2C(C)C)cn2ncnc2c1C [Example 3, 1-(4-(2-(7,8-dimethyl-[1,2,4]triazolo[1,5-a]pyridin-6-yl)-3-isopropyl-1H-pyrrolo[3,2-b]pyridin-5-yl)piperazin-1-yl)-2-(dimethylamino)ethan-1-one]				% inhibition of IFN-alpha (TLR7; 0.005 mg/kg oral): 29%; % inhibition of IL6 (TLR7; 0.005 mg/kg oral): 0%; % inhibition of IFN-alpha (TLR7; 0.01 mg/kg oral): 37%; % inhibition of IL6 (TLR7; 0.01 mg/kg oral): 24%; % inhibition of IFN-alpha (TLR7; 0.05 mg/kg oral): 94%; % inhibition of IL6 (TLR7; 0.05 mg/kg oral): 75%; % inhibition of IFN-alpha (TLR7; 0.25 mg/kg oral): 99%; % inhibition of IL6 (TLR7; 0.25 mg/kg oral): 90%; % inhibition of IFN-alpha (TLR7; 0.5 mg/kg oral): 100%; % inhibition of IL6 (TLR7; 0.5 mg/kg oral): 91%; IC50 (human TLR7; [1]): 0.93 nM; IC50 (human TLR8; [2]): 1.1 nM; IC50 (human TLR9; [3]): 8540 nM
Cc1c(-c2[nH]c3ccc(C4CCC(NCC5(S(C)(=O)=O)CC5)CC4)nc3c2C(C)C)cn2ncnc2c1C (centres unmarked) [Example 4, 4-(2-(7,8-dimethyl-[1,2,4]triazolo[1,5-a]pyridin-6-yl)-3-isopropyl-1H-pyrrolo[3,2-b]pyridin-5-yl)-N-((1-(methylsulfonyl)cyclopropyl)methyl)cyclohexan-1-amine]				% inhibition of IFN-alpha (TLR7; 0.0015 mg/kg oral): 0%; % inhibition of IL6 (TLR7; 0.0015 mg/kg oral): 0%; % inhibition of IFN-alpha (TLR7; 0.003 mg/kg oral): 33%; % inhibition of IL6 (TLR7; 0.003 mg/kg oral): 23%; % inhibition of IFN-alpha (TLR7; 0.015 mg/kg oral): 74%; % inhibition of IL6 (TLR7; 0.015 mg/kg oral): 75%; % inhibition of IFN-alpha (TLR7; 0.075 mg/kg oral): 93%; % inhibition of IL6 (TLR7; 0.075 mg/kg oral): 76%; % inhibition of IFN-alpha (TLR7; 0.15 mg/kg oral): 99%; % inhibition of IL6 (TLR7; 0.15 mg/kg oral): 95%; IC50 (human TLR7; [1]): 0.6 nM; IC50 (human TLR8; [2]): 0.71 nM; IC50 (human TLR9; [3]): 1070 nM
Cc1c(-c2[nH]c3ccc(C4CCC(N5CC(C(=O)N(C)C)C5)CC4)nc3c2C(C)C)cn2ncnc2c1C (centres unmarked) [Example 1050]	2.8 nM	4.8 nM	2660 nM	
Cc1c(-c2[nH]c3ccc(C4CCC(N5CCC5)CC4)nc3c2C(C)C)cn2ncnc2c1C (centres unmarked) [Example 1051]	0.41 nM	1.5 nM	1910 nM	
Cc1c(-c2[nH]c3ccc(C4CCC(N5CC(C)(C)C5)CC4)nc3c2C(C)C)cn2ncnc2c1C (centres unmarked) [Example 1052]	8.9 nM	17 nM	5920 nM	
Cc1c(-c2[nH]c3ccc([C@H]4CC[C@@H](N5CC6(C5)CS(=O)(=O)C6)CC4)nc3c2C(C)C)cn2ncnc2c1C [Example 1053]	2.5 nM	4.8 nM	4810 nM	
Cc1c(-c2[nH]c3ccc(C4CCC(NC(C)(C)C)CC4)nc3c2C(C)C)cn2ncnc2c1C (centres unmarked) [Example 1054]	5.4 nM	1.7 nM	1690 nM	
Cc1c(-c2[nH]c3ccc(C4CCC(N5CC6(CCO6)C5)CC4)nc3c2C(C)C)cn2ncnc2c1C (centres unmarked) [Example 1055]	4.3 nM	8.3 nM	5470 nM	
Cc1c(-c2[nH]c3ccc(C4CCC(NC(C)(C)C)CC4)nc3c2C(C)C)cn2ncnc2c1C (centres unmarked) [Example 1056]	2.1 nM	1.2 nM	2990 nM	
Cc1c(-c2[nH]c3ccc(C4CCC(N5CC6(CCO6)C5)CC4)nc3c2C(C)C)cn2ncnc2c1C (centres unmarked) [Example 1057]	0.81 nM	1.7 nM	2700 nM	
Cc1c(-c2[nH]c3ccc(C4CCC(N5CCC(F)C5)CC4)nc3c2C(C)C)cn2ncnc2c1C (centres unmarked) [Example 1058]	1.9 nM	3.5 nM	5280 nM	
Cc1c(-c2[nH]c3ccc(C4CCC(N5CCC6(CCOC6)C5)CC4)nc3c2C(C)C)cn2ncnc2c1C (centres unmarked) [Example 1059]	1.6 nM	1.4 nM	2250 nM	
Cc1c(-c2[nH]c3ccc(C4CCC(N5CCC6(COC6)C5)CC4)nc3c2C(C)C)cn2ncnc2c1C (centres unmarked) [Example 1060]	0.5 nM	0.5 nM	2600 nM	
Cc1c(-c2[nH]c3ccc(C4CCC(N5CC6(CCOC6)C5)CC4)nc3c2C(C)C)cn2ncnc2c1C (centres unmarked) [Example 1061]	2.7 nM	4.8 nM	3180 nM	
COc1cc(-c2[nH]c3ccc(C4CCC(N5CCC(F)C5)CC4)nc3c2C(C)C)cn2ncnc12 (centres unmarked) [Example 1067]	1 nM	4.5 nM	5400 nM	
COc1cc(-c2[nH]c3ccc(C4CCC(N5CCOCC5)CC4)nc3c2C(C)C)cn2ncnc12 (centres unmarked) [Example 1071]	3.7 nM	25 nM	5950 nM	
COc1cc(-c2[nH]c3ccc(C4CCC(N5CCC(F)C5)CC4)nc3c2C(C)C)cn2ncnc12 (centres unmarked) [Example 1072]	2.9 nM	35 nM	5840 nM	

Further lines, with some results ahead:

IC50 (human TLR7; [4])	IC50 (human TLR8; [5])	IC50 (human TLR9; [6])	SMILES	further results
13 nM	25 nM	10200 nM	Cc1c(-c2[nH]c3ccc(C4CCC(N5CCC(F)C5)CC4)nc3c2C(C)C)cn2ncnc2c1C (centres unmarked) [Example 1062]	
10 nM	18 nM	8060 nM	Cc1c(-c2[nH]c3ccc(C4CCC(N5CCC6(COC6)C5)CC4)nc3c2C(C)C)cn2ncnc2c1C (centres unmarked) [Example 1063]	
0.34 nM	0.96 nM	2460 nM	Cc1c(-c2[nH]c3ccc(C4CCC(N5CCOCC5)CC4)nc3c2C(C)C)cn2ncnc2c1C (centres unmarked) [Example 1064]	
1.1 nM	1.1 nM	2800 nM	Cc1c(-c2[nH]c3ccc(C4CCC(N5CC6(CCOC6)C5)CC4)nc3c2C(C)C)cn2ncnc2c1C (centres unmarked) [Example 1065]	
9 nM	11 nM	4290 nM	Cc1c(-c2[nH]c3ccc(C4CCC(N5CCC6(CCOC6)C5)CC4)nc3c2C(C)C)cn2ncnc2c1C (centres unmarked) [Example 1066]	
0.88 nM	1.8 nM	2960 nM	COc1cc(-c2[nH]c3ccc(C4CCC(N5CCC6(COC6)C5)CC4)nc3c2C(C)C)cn2ncnc12 (centres unmarked) [Example 1068]	
0.09 nM	0.17 nM	735 nM	COc1cc(-c2[nH]c3ccc(C4CCC(N5CC6(CCOC6)C5)CC4)nc3c2C(C)C)cn2ncnc12 (centres unmarked) [Example 1069]	
0.54 nM	0.72 nM	845 nM	COc1cc(-c2[nH]c3ccc(C4CCC(N5CC6(CCOC6)C5)CC4)nc3c2C(C)C)cn2ncnc12 (centres unmarked) [Example 1070]	
4.6 nM	28 nM	5830 nM	COc1cc(-c2[nH]c3ccc(C4CCC(N5CCC6(COC6)C5)CC4)nc3c2C(C)C)cn2ncnc12 (centres unmarked) [Example 1073]	
0.59 nM	1.9 nM	2130 nM	COc1cc(-c2[nH]c3ccc(C4CCC(N5CC6(CCO6)C5)CC4)nc3c2C(C)C)cn2ncnc12 (centres unmarked) [Example 1074]	
1.8 nM	11 nM	3350 nM	COc1cc(-c2[nH]c3ccc(C4CCC(N5CC6(CCO6)C5)CC4)nc3c2C(C)C)cn2ncnc12 (centres unmarked) [Example 1075]	
1.6 nM	1.8 nM	10600 nM	Cc1c(-c2[nH]c3ccc(C4CCC(N5CC6(CCS6(=O)=O)C5)CC4)nc3c2C(C)C)cn2ncnc2c1C (centres unmarked) [Example 1076]	
18 nM	38 nM	21800 nM	Cc1c(-c2[nH]c3ccc(C4CCC(N5CC6(CCS6(=O)=O)C5)CC4)nc3c2C(C)C)cn2ncnc2c1C (centres unmarked) [Example 1077]	
9.8 nM	216 nM	> 50000 nM	CNC1CCC(c2ccc3[nH]c(-c4cn(C)c5ncncc45)c(C(C)C)c3n2)CC1 (centres unmarked) [Example 1078]	
